Assays:
[1] = In vitro stability of 131I-rhein in rat serum by radio-HPLC; format: in vitro ADME; conditions: 37 °C, 24 h
Protocol: Reversed-phase high performance liquid chromatography (RP-HPLC) was equipped with Waters 2998 PDA detector, HERM LB500 radiometric detector (Berthold Technologies, Germany), a pump (Waters 2695) and a Alltima C18 column (250 × 4.6 mm, 5 μm, GRACE). The mobile phase was methanol/0.1% phosphoric acid in water (80:20, v/v), the flow rate was 1.0 mL/min and the temperature of column was 30 °C. All solvents used for HPLC analysis were HPLC grade.
^131I-rhein was incubated in rat serum at 37 °C for 24 h, and the mixture was mixed with methanol at a ratio of 2:3 and shaken. After centrifuging the mixture at 12000 rpm for 10 min, the supernatant was collected and passed through 0.22-μm pore-size filters (Membrana, Wuppertal, NRW, Germany) for in vitro stability analysis by radio-HPLC as described above.

[2] = Pharmacokinetics (blood clearance) in normal rats; format: in vivo, Sprague-Dawley rats
Protocol: For the pharmacokinetic study, six healthy rats were intravenously injected with ^131I-rhein under anesthesia. The blood samples (10 μL) were collected by means of a tail incision at 5 min, 10 min, 30 min, 1 h, 2 h, 4 h, 6 h, 8 h, 10 h, 12 h and 24 h after administration. The radioactivity of blood samples was measured and the results were expressed as megabecquerel per liter (MBq/L). The blood pharmacokinetic parameters of the radiotracer were analyzed by using the non-compartmental analysis of Drug and Statistics for windows 2.0 software.

necrotic muscle [3] = experiment: Biodistribution in mice with muscular necrosis (gamma counting); format: in vivo, Kunming mice; conditions: model mice, 0.37 MBq i.v.
Protocol: All animals were given 0.12% potassium iodide in drinking water from 3 days before the experiment till the end of experiment to protect the thyroid gland from taking up free ^131I.
Each mouse was intramuscularly injected with 0.1 mL absolute alcohol in the left hind limb to induce muscular necrosis.
At least 12 h after recovery from surgery, each model mouse was intravenously administrated with 0.37 MBq of ^131I-anthraquinones and each rat was intravenously injected with 3.7 MBq of ^131I-rhein or ^131I-Hyp for pharmacological evaluations. All animals were intravenously administered with 0.1 ml of 1% Evans blue solution for intravital staining of necrosis that helped to selectively sample bluish necrotic tissues for radioactivity quantification.
One hundred and twenty model mice were randomly divided into 24 groups for eight tracers (n = 5 per compound and per time point). Mice were sacrificed by cervical dislocation at 2 h, 12 h and 24 h after administration. Necrotic and normal tissues of interest (blood, thyroid, lung, heart, liver, spleen, stomach, kidney, viable/necrotic muscle) were sampled, and wet weighed with the radioactivity measured by a γ-counter. Background radiation and physical decay were corrected during counting. The results were expressed as percentage of the injected dose per gram of tissue (%ID/g). Ratios of radioactivity concentrations between in necrotic and viable muscle were calculated.

infarcted myocardium = experiment: Autoradiography of MI heart sections from model rats; format: in vivo, Sprague-Dawley rats; conditions: 50 μm frozen sections
[4] = In vitro stability of 131I-anthraquinones in rat serum by TLC; format: in vitro ADME; conditions: 37 °C, 24 h
Protocol: Iodogen ([…]-3a, 6a-diphenylglycouracil; Sigma, St. Louis, MO) was dissolved in dichloromethane and deposited on the wall of tubes as a thin film. Radioiodination was initiated by adding dimethylsulfoxide (DMSO) solutions of each anthraquinone (1.25 mg/mL) and Na^131I solutions (4:1, v/v) into Iodogen-coated tube, adjusting pH with phosphate buffered saline (PBS, pH 7.4). Then these mixtures were shaken and incubated at 45 °C for 2–4 h, and radiochemical purity was determined by thin-layer chromatography (TLC) using Whatman No.1 filter paper and 0.1 M hydrochloric acid as the developing solvent. Then the solvent was evaporated, the paper was cut in half and measured the radioactivity by direct γ-counting (WIZARD1470; PerkinElmer, USA). For obtaining the injectants, these mixtures were diluted with propylene glycol and polyethylene glycol 400 (1:1, v/v), respectively.
In vitro stability of eight ^131I-anthraquinones were tested in rat serum, 0.1 mL injectant was added to 0.9 mL rat serum (1:9, v/v) and incubated at 37 °C. Then radiolabeling stability was determined by TLC using the procedure described above at the time points of 0.5 h, 6 h, 12 h and 24 h, respectively.

necrotic myocardium [5] = experiment: SPECT/CT imaging of rats with reperfused MI or sham operation; format: in vivo, Sprague-Dawley rats; conditions: 6 h after administration
necrotic muscle [6] = experiment: TTC staining and quantitative autoradiography of necrotic and viable muscle; parameters: species or system Kunming mice; conditions: mouse, in vivo
Protocol: The necrotic muscles were stained in 2% TTC solution at 37 °C for 15 min and digitally photographed, then cut into 50 μm frozen sections with a cryotome (Shandon FSE, Thermo Fisher Scientific Co., Waltham, MA, USA) for autoradiography. Autoradiographs of these sections were obtained by exposure to a high-performance storage phosphor screen (Cyclone; Canberra-Packard, Ontario, Canada) for 6–48 h and digitally photographed with Optiquant software (Pacard, Packard Meriden, CT, USA). Relative tracer concentrations in necrotic muscles were evaluated by regions of interest analysis and the results were compared with that from the corresponding viable muscles.

necrotic myocardium [7] = conditions: rat, in vivo, iv

For `O=C(O)c1cc(O)c2c(c1)C(=O)c1ccc([131I])c(O)c1C2=O` [^131I-rhein], the “intact parent tracer after incubation in rat serum (radio-HPLC)” value [1] was 91.75% ± 0.47%, the “radioactivity concentration in blood as share of peak radioactivity concentration” value ([2]; 6 h) was 23.47% ± 1.91% and the “AUC(0 –∞)” value ([2]; i.v. 3.7 MBq, blood) was 211.76 ± 31.18 MBq/L*h. For the same compound, the “CLZ (clearance)” value ([2]; i.v. 3.7 MBq, blood) was 0.67 ± 0.17 mL/min/kg, the Cmax ([2]; i.v. 3.7 MBq, blood) was 42.40 ± 5.41 MBq/L and the Tmax ([2]; i.v. 3.7 MBq, blood) was 4.8 ± 0 min. For the same compound, the VZ ([2]; i.v. 3.7 MBq, blood) was 0.42 ± 0.06 L/kg, the “t1/2z (elimination half-life)” value ([2]; i.v. 3.7 MBq, blood) was 8.20 ± 0.49 h and the “AUC(0 –t)” value ([2]; i.v. 3.7 MBq, within 24 h, blood) was 187.46 ± 28.26 MBq/L*h. For the same compound, the Blood uptake (necrotic muscle [3]; 2 h after administration) was 3.14 ± 0.32 %ID/g, the Heart uptake (necrotic muscle [3]; 2 h after administration) was 0.47 ± 0.05 %ID/g and the Kidney uptake (necrotic muscle [3]; 2 h after administration) was 2.68 ± 0.47 %ID/g. The Liver uptake (necrotic muscle [3]; 2 h after administration) was 2.03 ± 0.21 %ID/g, the Lung uptake (necrotic muscle [3]; 2 h after administration) was 0.95 ± 0.06 %ID/g and the “N/V ratio (necrotic muscle/viable muscle)” value (necrotic muscle [3]; 2 h after administration) was 5.84 ± 0.10. For the same compound, the “Necrotic.m (necrotic muscle) uptake” value (necrotic muscle [3]; 2 h after administration) was 4.61 ± 0.39 %ID/g, the Spleen uptake (necrotic muscle [3]; 2 h after administration) was 0.97 ± 0.13 %ID/g and the Stomach uptake (necrotic muscle [3]; 2 h after administration) was 1.40 ± 0.16 %ID/g. The Thyroid uptake (necrotic muscle [3]; 2 h after administration) was 1.56 ± 0.17 %ID/g, the “Viable.m (viable muscle) uptake” value (necrotic muscle [3]; 2 h after administration) was 0.79 ± 0.08 %ID/g and the Blood uptake (necrotic muscle [3]; 12 h after administration) was 1.20 ± 0.13 %ID/g. For the same compound, the Heart uptake (necrotic muscle [3]; 12 h after administration) was 0.28 ± 0.03 %ID/g, the Kidney uptake (necrotic muscle [3]; 12 h after administration) was 2.03 ± 0.12 %ID/g and the Liver uptake (necrotic muscle [3]; 12 h after administration) was 1.55 ± 0.12 %ID/g. The Lung uptake (necrotic muscle [3]; 12 h after administration) was 0.62 ± 0.05 %ID/g, the “N/V ratio (necrotic muscle/viable muscle)” value (necrotic muscle [3]; 12 h after administration) was 7.26 ± 0.23 and the “Necrotic.m (necrotic muscle) uptake” value (necrotic muscle [3]; 12 h after administration) was 4.06 ± 0.16 %ID/g. It also gave a Spleen uptake (necrotic muscle [3]; 12 h after administration) of 0.65 ± 0.08 %ID/g, a Stomach uptake (necrotic muscle [3]; 12 h after administration) of 1.05 ± 0.11 %ID/g and a Thyroid uptake (necrotic muscle [3]; 12 h after administration) of 0.78 ± 0.07 %ID/g. The “Viable.m (viable muscle) uptake” value (necrotic muscle [3]; 12 h after administration) was 0.56 ± 0.04 %ID/g, the Blood uptake (necrotic muscle [3]; 24 h after administration) was 0.15 ± 0.01 %ID/g and the Heart uptake (necrotic muscle [3]; 24 h after administration) was 0.08 ± 0.01 %ID/g. It also gave a Kidney uptake (necrotic muscle [3]; 24 h after administration) of 0.65 ± 0.07 %ID/g, a Liver uptake (necrotic muscle [3]; 24 h after administration) of 0.49 ± 0.05 %ID/g and a Lung uptake (necrotic muscle [3]; 24 h after administration) of 0.18 ± 0.03 %ID/g. The “N/V ratio (necrotic muscle/viable muscle)” value (necrotic muscle [3]; 24 h after administration) was 12.33 ± 0.67, the “Necrotic.m (necrotic muscle) uptake” value (necrotic muscle [3]; 24 h after administration) was 0.74 ± 0.04 %ID/g and the Spleen uptake (necrotic muscle [3]; 24 h after administration) was 0.29 ± 0.03 %ID/g. For the same compound, the Stomach uptake (necrotic muscle [3]; 24 h after administration) was 0.09 ± 0.02 %ID/g, the Thyroid uptake (necrotic muscle [3]; 24 h after administration) was 0.32 ± 0.06 %ID/g and the “Viable.m (viable muscle) uptake” value (necrotic muscle [3]; 24 h after administration) was 0.06 ± 0.00 %ID/g. For the same compound, the “activity in infarcted myocardium relative to viable myocardium (autoradiography)” value (infarcted myocardium) was 14 fold, the “stability after incubation in rat plasma (TLC)” value [4] was 93.17% ± 0.38% and the “SPECT/CT imaging outcome in the heart” value (necrotic myocardium [5]) was “Relatively high uptake as a hot spot showed up in the heart of the model rat”. The “necrotic/viable muscle ratio by quantitative autoradiography” value (necrotic muscle [6]) was 17.64 ± 1.28, the necrotic/viable myocardium ratio (necrotic myocardium [7]) was “about 9.81 ± 0.61” and the “radioactivity concentration in blood” value (necrotic myocardium [7]; 6 h) was 0.36 ± 0.03 %ID/g. The “radioactivity concentration in infarcted myocardium” value (necrotic myocardium [7]; 6 h) was 1.18 ± 0.03 %ID/g, the “radioactivity concentration in kidney” value (necrotic myocardium [7]; 6 h) was 0.68 ± 0.04 %ID/g and the “radioactivity concentration in liver” value (necrotic myocardium [7]; 6 h) was 0.14 ± 0.01 %ID/g. The “radioactivity concentration in lung” value (necrotic myocardium [7]; 6 h) was 0.24 ± 0.02 %ID/g and the “radioactivity concentration in viable myocardium” value (necrotic myocardium [7]; 6 h) was 0.12 ± 0.01 %ID/g.
With `O=C1c2ccccc2C(=O)c2c1ccc([131I])c2O` [^131I-1-hydroxyanthraquinone] the Blood uptake (necrotic muscle [3]; 2 h after administration) was 3.19 ± 0.35 %ID/g, the Heart uptake (necrotic muscle [3]; 2 h after administration) was 0.58 ± 0.06 %ID/g and the Kidney uptake (necrotic muscle [3]; 2 h after administration) was 1.64 ± 0.17 %ID/g. For the same compound, the Liver uptake (necrotic muscle [3]; 2 h after administration) was 1.07 ± 0.11 %ID/g, the Lung uptake (necrotic muscle [3]; 2 h after administration) was 1.12 ± 0.09 %ID/g and the “N/V ratio (necrotic muscle/viable muscle)” value (necrotic muscle [3]; 2 h after administration) was 3.71 ± 0.37. For the same compound, the “Necrotic.m (necrotic muscle) uptake” value (necrotic muscle [3]; 2 h after administration) was 2.75 ±0.31 %ID/g, the Spleen uptake (necrotic muscle [3]; 2 h after administration) was 1.04 ± 0.08 %ID/g and the Stomach uptake (necrotic muscle [3]; 2 h after administration) was 1.40 ± 0.13 %ID/g. The Thyroid uptake (necrotic muscle [3]; 2 h after administration) was 1.53 ± 0.21 %ID/g, the “Viable.m (viable muscle) uptake” value (necrotic muscle [3]; 2 h after administration) was 0.74 ± 0.05 %ID/g and the Blood uptake (necrotic muscle [3]; 12 h after administration) was 0.66 ± 0.04 %ID/g. The Heart uptake (necrotic muscle [3]; 12 h after administration) was 0.11 ± 0.01 %ID/g, the Kidney uptake (necrotic muscle [3]; 12 h after administration) was 0.37 ± 0.02 %ID/g and the Liver uptake (necrotic muscle [3]; 12 h after administration) was 0.24 ± 0.03 %ID/g. For the same compound, the Lung uptake (necrotic muscle [3]; 12 h after administration) was 0.33 ± 0.04 %ID/g, the “N/V ratio (necrotic muscle/viable muscle)” value (necrotic muscle [3]; 12 h after administration) was 4.22 ± 0.02 and the “Necrotic.m (necrotic muscle) uptake” value (necrotic muscle [3]; 12 h after administration) was 0.59 ± 0.05 %ID/g. For the same compound, the Spleen uptake (necrotic muscle [3]; 12 h after administration) was 0.26 ± 0.02 %ID/g, the Stomach uptake (necrotic muscle [3]; 12 h after administration) was 0.82 ± 0.09 %ID/g and the Thyroid uptake (necrotic muscle [3]; 12 h after administration) was 0.46 ± 0.03 %ID/g. The “Viable.m (viable muscle) uptake” value (necrotic muscle [3]; 12 h after administration) was 0.14 ± 0.01 %ID/g, the Blood uptake (necrotic muscle [3]; 24 h after administration) was 0.07 ± 0.01 %ID/g and the Heart uptake (necrotic muscle [3]; 24 h after administration) was 0.02 ± 0.00 %ID/g. It also gave a Kidney uptake (necrotic muscle [3]; 24 h after administration) of 0.04 ± 0.01 %ID/g, a Liver uptake (necrotic muscle [3]; 24 h after administration) of 0.08 ± 0.01 %ID/g and a Lung uptake (necrotic muscle [3]; 24 h after administration) of 0.05 ± 0.01 %ID/g. The “N/V ratio (necrotic muscle/viable muscle)” value (necrotic muscle [3]; 24 h after administration) was 5.83 ± 0.29, the “Necrotic.m (necrotic muscle) uptake” value (necrotic muscle [3]; 24 h after administration) was 0.35 ± 0.02 %ID/g and the Spleen uptake (necrotic muscle [3]; 24 h after administration) was 0.02 ± 0.00 %ID/g. For the same compound, the Stomach uptake (necrotic muscle [3]; 24 h after administration) was 0.09 ± 0.01 %ID/g, the Thyroid uptake (necrotic muscle [3]; 24 h after administration) was 0.33 ± 0.04 %ID/g and the “Viable.m (viable muscle) uptake” value (necrotic muscle [3]; 24 h after administration) was 0.06 ± 0.00 %ID/g. The “stability after incubation in rat plasma (TLC)” value [4] was 87.93% ± 0.45% and the “necrotic/viable muscle ratio by quantitative autoradiography” value (necrotic muscle [6]) was 9.16 ± 0.78.
